Data: patent US5492910A, “Retrocarbamate protease inhibitors” (Bristol-Myers Squibb Co., priority 1994, dated 1996)

How the values were obtained:
[1] = target: T1, HIV protease (Human immunodeficiency virus type 1 group M subtype B, UniProt P04585); assay: HIV Protease Assay; assay type: biochemical; conditions: 10 μM inhibitor, 4% DMSO, 450 μM substrate, pH 5.5, 30 minutes at 37° C.
T1 construct: purified protease
Description: An HIV protease standard assay was performed in a 60 μl reaction medium containing 50 mM sodium acetate, pH 5.5, 100 μg/ml bovine serum, 450 μM substrate (H2 N-Val-Ser-Gin-Asn-( β-naphthyl-alanine)-Pro-Val-Ile-OH), and purified protease. The reaction medium was incubated for 30 minutes at 37° C., quenched by the addition of 140 μl 5% H3 PO4, then analyzed by reverse phase HPLC using UV220 detection. In a typical control assay, 7% of the substrate was hydrolyzed. The retrocarbamate protease inhibitors of the present invention, listed in the following Table 1, were then employed in the assay, for which purpose they were prepared as a […] solution in DMSO then diluted to 30 μM with 50 mM sodium acetate/bovine serum albumen. This working stock was then diluted three-fold into the protease reaction medium, for a final concentration of 10 μM inhibitor and 4% DMSO.

[2] = tested on: HIV (CEM Cells); assay: Cell Culture Anti-HIV Activity (formazan cell viability of HIV-infected CEM-SS cells); assay type: cell-based; conditions: Human immunodeficiency virus 1, CCRF-CEM, 144 h; CEM-SS cells infected with RF strain of HIV, multiplicity of infection 0.04, 6 days at 37° C.; concentration raising formazan production to 50% of uninfected cells
Description: The antiviral activity of the retrocarbamate protease inhibitors of the present invention was evaluated by a microculture method which determines the increase in cell viability of an infected culture when a drug is added. The assay depends on the metabolic reduction of tetrazolium reagent by viable cells to yield a soluble colored formazan product. The assay was performed as follows: suspensions of CEM--SS cells (5000/well) were infected with the RF strain of HIV at a multiplicity of infection at 0.04 in a 96-well plate. The compounds of the present invention listed in the following Table 1, serially diluted in half-log fashion, were added to the infected and uninfected control cells. Untreated (infected and uninfected) cells were included as controls. Following incubation for 6 days at 37° C., viable cells in each well were quantitated by the visible light absorbance at 450 nm. The IC50 was calculated as the concentration of drug that increased the formazan production in virally infected cells to 50% of that produced by uninfected cells in the absence of drug.

Row | SMILES | inhibition at 10 µM [1] | IC50 [2]
1 | CC(C)(C)NC(=O)O[C@@H](Cc1ccccc1)[C@H](O)CNC[C@@H](O)[C@H](Cc1ccccc1)NC(=O)OC(C)(C)C [Example 1, [1S-[1R*,2S*(2S*,3R*)]]-[3-[[3-[[[(1,1-Dimethylethyl)amino]carbonyl]oxy]-2-hydroxy-4-phenylbutyl]amino]-2-hydroxy-1-(phenylmethyl)-propyl]carbamic acid, 1,1-dimethyl ester] | 98% | 460 nM
2 | CC(C)(C)NC(=O)O[C@@H](Cc1ccccc1)[C@H](O)CNC[C@@H](O)[C@H](Cc1ccc(OCC(=O)N2CCOCC2)cc1)NC(=O)OC(C)(C)C [Example 2, [1S-[1R*,2S* (2S*,3R*)]]-[3-[[3-[[[(1,1-Dimethylethyl)amino]carbonyl]oxy]-2-hydroxy-4-phenylbutyl]amino]-2-hydroxy-1-[[4-[2-(morpholinyl)-2-oxoethoxy]phenyl]methyl]propyl]carbamic acid, 1,1-dimethylethyl ester] | 90% | 200 nM
3 | CC(C)(C)NC(=O)O[C@@H](Cc1ccccc1)[C@H](O)CNC[C@@H](O)[C@H](Cc1ccccc1)NC(=O)[C@](C)(O)C(C)(C)C [Example 3, [1S-[1R*, 2S*[2S*, 3R* (S*)]]]-(1,1-Dimethylethyl)carbamic acid, 3-[[3-[(2-hydroxy-2,3,3-trimethyl-1-oxobutyl)amino]-2-hydroxy-4-phenylbutyl]amino]-2-hydroxy-1-(phenylmethyl)propyl ester] | 98% | 100 nM
